# Results published in patent US20110288057A1, “SALICYLIC ACID DERIVATIVES BEING FARNESYL PYROPHOSPHATE SYNTHASE ACTIVITY INHIBITORS” (Novartis AG, priority 2008, published 2011).
# Like-named read-outs stand apart in the source and are kept apart here.
# Biological target: T1, Recombinant human Farnesyl Pyrophosphate synthase (FPPS) (Homo sapiens, UniProt P14324)
# T1 construct: made in house
# T1 sequence (P14324 72-419 limits assumed): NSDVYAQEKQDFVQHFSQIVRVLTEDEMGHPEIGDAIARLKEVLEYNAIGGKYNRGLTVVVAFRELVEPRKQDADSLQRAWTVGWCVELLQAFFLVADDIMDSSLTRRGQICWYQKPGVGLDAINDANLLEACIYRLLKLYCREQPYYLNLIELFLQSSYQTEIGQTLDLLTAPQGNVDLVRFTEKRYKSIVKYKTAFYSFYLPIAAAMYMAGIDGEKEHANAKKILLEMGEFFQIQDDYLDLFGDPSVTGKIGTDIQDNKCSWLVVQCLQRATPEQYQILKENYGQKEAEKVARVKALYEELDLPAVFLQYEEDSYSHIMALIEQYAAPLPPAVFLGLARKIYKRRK
# Experiment: FPPS SPA (scintillation proximity FlashPlate assay of FPPS inhibition)
# Type: biochemical
# [1] = Example 13 table, FPPS SPA, read-out: IC50
# [2] = IC50, Example 13 table, FPPS SPA
# [3] = Example 15 table, FPPS SPA, read-out: IC50
# [4] = Example 16 table, FPPS SPA, read-out: IC50
# [5] = Inhibition according to the FPPS SPA (Example 21), read-out: IC50
IC50 [1] [nM],IC50 [3] [nM],SMILES,also measured
260,–,COc1ccc(-c2ccc(C(=O)O)c(OCc3cccc4ccccc34)c2)cc1OC [13 ab)],–
1460,–,O=C(O)c1ccc(-c2ccc(Cl)c(Cl)c2)cc1OCc1cccc2ccccc12 [13 ac)],–
500,–,O=C(O)c1ccc(-c2cccc(CO)c2)cc1OCc1cccc2ccccc12 [13 ad)],–
> 10000,–,O=C(O)c1ccc(-c2cccc(OC(F)(F)F)c2)cc1OCc1cccc2ccccc12 [13 ae)],–
1550,–,COc1cccc(-c2ccc(C(=O)O)c(OCc3cccc4ccccc34)c2)c1 [13 af)],–
1100,–,Cc1cccc(C)c1-c1ccc(C(=O)O)c(OCc2cccc3ccccc23)c1 [13 ag)],–
260,–,O=C(O)c1ccc(-c2cccc3[nH]ccc23)cc1OCc1cccc2ccccc12 [13 ah)],–
320,–,O=C(O)c1ccc(-c2ccc(F)c(F)c2)cc1OCc1cccc2ccccc12 [13 ai)],–
550,–,O=C(O)c1ccc(-c2ccoc2)cc1OCc1cccc2ccccc12 [13 aj)],–
230,–,O=C(O)c1ccc(-c2ccccc2F)cc1OCc1cccc2ccccc12 [13 ak)],–
1120,–,O=C(O)c1ccc(-c2cc3ccccc3o2)cc1OCc1cccc2ccccc12 [13 al)],–
340,–,O=C(O)c1ccc(-c2ccc3[nH]ccc3c2)cc1OCc1cccc2ccccc12 [13 am)],–
1350,–,O=C(O)c1ccc(-c2csc3ccccc23)cc1OCc1cccc2ccccc12 [13 an)],–
420,–,O=C(O)c1ccc(-c2ccc3c(c2)OCCO3)cc1OCc1cccc2ccccc12 [13 ao)],–
1930,–,COc1ccccc1-c1ccc(C(=O)O)c(OCc2cccc3ccccc23)c1 [13 ap)],–
1140,–,O=C(O)c1ccc(-c2cccc(F)c2)cc1OCc1cccc2ccccc12 [13 aq)],–
530,–,Cc1ccccc1-c1ccc(C(=O)O)c(OCc2cccc3ccccc23)c1 [13 ar)],–
380,–,O=C(O)c1ccc(-c2ccc(CO)cc2)cc1OCc1cccc2ccccc12 [13 as)],–
–,–,O=C(O)c1ccc(-c2ccc(F)cc2)cc1OCc1cccc2ccccc12 [13 at)],IC50 [2]: 300 nM
380,–,O=C(O)c1ccc(-c2cccc(O)c2)cc1OCc1cccc2ccccc12 [13 au)],–
–,–,O=C(O)c1ccc(-c2ccc(Cl)cc2)cc1OCc1cccc2ccccc12 [13 av)],IC50 [2]: 690 nM
440,–,Cc1cc(Cl)ccc1-c1ccc(C(=O)O)c(OCc2cccc3ccccc23)c1 [13 aw)],–
400,–,Cc1cccc(-c2ccc(C(=O)O)c(OCc3cccc4ccccc34)c2)c1 [13 ax)],–
380,–,COc1ccc2cc(-c3ccc(C(=O)O)c(OCc4cccc5ccccc45)c3)ccc2c1 [13 ay)],–
–,–,O=C(O)c1ccc(-c2ccc(O)cc2)cc1OCc1cccc2ccccc12 [13 az)],IC50 [2]: 380 nM

IC50 [1] [nM],IC50 [3] [nM],SMILES,also measured
240,–,O=C(O)c1ccc(-c2ccc3c(c2)OCO3)cc1OCc1cccc2ccccc12 [13 ba)],–
270,–,Cn1ccc2cc(-c3ccc(C(=O)O)c(OCc4cccc5ccccc45)c3)ccc21 [13 ca)],–
130,–,CC(=O)Nc1ccc(-c2ccc(C(=O)O)c(OCc3cccc4ccccc34)c2)cc1 [13 da)],–
–,630,O=C(O)c1ccc(NC2CCCC2)cc1OCc1cccc2ccccc12 [15 aa)],–
–,2310,O=C(O)c1ccc(NCCCO)cc1OCc1cccc2ccccc12 [15 ab)],–
–,530,O=C(O)c1ccc(N2CCCCCC2)cc1OCc1cccc2ccccc12 [15 ac)],–
–,470,CC(C)(C)CNc1ccc(C(=O)O)c(OCc2cccc3ccccc23)c1 [15 ad)],–
–,1390,COCCN(C)c1ccc(C(=O)O)c(OCc2cccc3ccccc23)c1 [15 ae)],–
–,720,CN(CCO)c1ccc(C(=O)O)c(OCc2cccc3ccccc23)c1 [15 af)],–
–,2430,O=C(O)c1ccc(NCC2CCCCC2)cc1OCc1cccc2ccccc12 [15 ag)],–
–,1310,CCCN(CC1CC1)c1ccc(C(=O)O)c(OCc2cccc3ccccc23)c1 [15 ah)],–
–,3520,C[C@H](Nc1ccc(C(=O)O)c(OCc2cccc3ccccc23)c1)C1CCCCC1 [15 ai)],–
–,1790,O=C(O)c1ccc(NC2CCCCCC2)cc1OCc1cccc2ccccc12 [15 aj)],–
–,1240,CC1CCC(Nc2ccc(C(=O)O)c(OCc3cccc4ccccc34)c2)CC1 (centres unmarked) [15 ak)],–
–,370,CCCNc1ccc(C(=O)O)c(OCc2cccc3ccccc23)c1 [15 al)],–
–,190,O=C(O)c1ccc(N[C@H]2CC[C@H](O)CC2)cc1OCc1cccc2ccccc12 [15 am)],–
–,–,CN(C)c1ccc(C(=O)O)c(OCc2cccc3ccccc23)c1 [15 an)],"IC50 (IC50, Example 15 table, FPPS SPA): 190 nM"
–,730,CCNc1ccc(C(=O)O)c(OCc2cccc3ccccc23)c1 [15 ao)],–
–,17500,CN1CCCC1CCNc1ccc(C(=O)O)c(OCc2cccc3ccccc23)c1 (centres unmarked) [15 ap)],–
–,650,CC(Nc1ccc(C(=O)O)c(OCc2cccc3ccccc23)c1)C(C)(C)C (centres unmarked) [15 aq)],–
–,8100,COCCNc1ccc(C(=O)O)c(OCc2cccc3ccccc23)c1 [15 ar)],–
–,6500,CC(=O)N1CCN(c2ccc(C(=O)O)c(OCc3cccc4ccccc34)c2)CC1 [15 as)],–
–,6450,CN1CCCN(c2ccc(C(=O)O)c(OCc3cccc4ccccc34)c2)CC1 [15 at)],–
–,3180,O=C(O)c1ccc(N2CCOCC2)cc1OCc1cccc2ccccc12 [15 au)],–
–,4750,CN1CCC(Nc2ccc(C(=O)O)c(OCc3cccc4ccccc34)c2)CC1 [15 aw)],–

IC50 [1] [nM],IC50 [3] [nM],SMILES,also measured
–,26600,CCN(CC)CCN(C)c1ccc(C(=O)O)c(OCc2cccc3ccccc23)c1 [15 az)],–
–,38600,CN1CCN(c2ccc(C(=O)O)c(OCc3cccc4ccccc34)c2)CC1 [15 ba)],–
–,–,O=C(O)c1ccc(NCc2ccccc2)cc1OCc1cccc2ccccc12 [16 b)],IC50 [4]: 210 nM
–,–,O=C(O)c1ccc(NCC2CC2)cc1OCc1cccc2ccccc12 [16 c)],IC50 [4]: 1200 nM
–,–,CCN(CC)c1ccc(C(=O)O)c(OCc2c(Cl)ccc3ccccc23)c1 [17 a)],IC50 [5]: 770 nM
–,–,Cc1ccc2ccccc2c1COc1ccccc1C(=O)O [17 b)],IC50 [5]: 340 nM
–,–,Cc1ccc2ccccc2c1COc1cc(-n2c(C)ccc2C)ccc1C(=O)O [17 c)],IC50 [5]: 480 nM
–,–,CCN(CC)c1ccc(C(=O)O)c(OCc2c(C)ccc3ccccc23)c1 [17 d)],IC50 [5]: 660 nM
–,–,Cc1ccc(COc2ccccc2C(=O)O)c2ccccc12 [17 e)],IC50 [5]: 1830 nM
–,–,CCN(CC)c1ccc(C(=O)O)c(OCc2cccc3ccc(Cl)cc23)c1 [17 f)],IC50 [5]: 1820 nM
–,–,Cc1ccc(C)n1-c1ccc(C(=O)O)c(OCc2cccc3ccccc23)c1 [17 g)],IC50 [5]: 240 nM
–,–,O=C(O)c1cc2ccccc2cc1OCc1cccc2ccccc12 [17 h)],IC50 [5]: 840 nM
–,–,CCN(CC)c1ccc(C(=O)O)c(OCc2cccc3ccccc23)c1 [17 i)],IC50 [5]: 400 nM
–,–,O=C(O)c1cc(Cl)ccc1OCc1cccc2ccccc12 [17 j)],IC50 [5]: 2960 nM
–,–,O=C(O)c1ccc(C(F)(F)F)cc1OCc1cccc2ccccc12 [17 k)],IC50 [5]: 810 nM
–,–,O=C(O)c1ccc(OC(F)(F)F)cc1OCc1cccc2ccccc12 [17 l)],IC50 [5]: 2910 nM
–,–,CC(C)CCOc1ccc(C(=O)O)c(OCc2cccc3ccccc23)c1 [17 m)],IC50 [5]: 1900 nM
–,–,O=C(O)c1ccc(OCc2ccccc2)cc1OCc1cccc2ccccc12 [17 n)],IC50 [5]: 730 nM
–,–,COc1ccc(OCc2cccc3ccccc23)c(C(=O)O)c1 [17 o)],IC50 [5]: 880 nM
–,–,Cc1cc(O)c(C(=O)O)c(OCc2cccc3ccccc23)c1 [17 p)],IC50 [5]: 2500 nM
–,–,O=C(O)c1ccc(Br)cc1OCc1cccc2ccccc12 [17 q)],IC50 [5]: 6750 nM
–,–,O=C(O)c1ccccc1OCc1cccc2ccccc12 [17 r)],IC50 [5]: 12800 nM
–,–,COc1ccc(C(=O)O)c(OCc2cccc3ccccc23)c1 [17 s)],IC50 [5]: 1340 nM
–,–,O=C(O)c1ccccc1OCc1cccc2ccccc12 [Example 17 r)],"IC50 (IC50 on FPPS, test system termed ""FPS SPA"" (Example 18)): 12500 nM"
